Data from the kinase profiling compilation of Christmann-Franck et al. (2016).

How the values were obtained:
Test in all cases: KINOMEscan competition binding
Conditions in all cases: compound 1.0 µM
RIPK2 (human) = RIPK2 (human) (UniProt O43353)
CDC2L2 (human) = CDC2L2 (human) (UniProt Q9UQ88)
EPHA8 (human) = EPHA8 (human) (UniProt P29322)
[1] = target: JAK3 JH1 catalytic (human) (UniProt P52333)
EPHB1 (human) = EPHB1 (human) (UniProt P54762)
FES (human) = FES (human) (UniProt P07332)
TLK2 (human) = TLK2 (human) (UniProt Q86UE8)
HCK (human) = HCK (human) (UniProt P08631)
Sequence of HCK (human) (P08631 whole entry, looked up): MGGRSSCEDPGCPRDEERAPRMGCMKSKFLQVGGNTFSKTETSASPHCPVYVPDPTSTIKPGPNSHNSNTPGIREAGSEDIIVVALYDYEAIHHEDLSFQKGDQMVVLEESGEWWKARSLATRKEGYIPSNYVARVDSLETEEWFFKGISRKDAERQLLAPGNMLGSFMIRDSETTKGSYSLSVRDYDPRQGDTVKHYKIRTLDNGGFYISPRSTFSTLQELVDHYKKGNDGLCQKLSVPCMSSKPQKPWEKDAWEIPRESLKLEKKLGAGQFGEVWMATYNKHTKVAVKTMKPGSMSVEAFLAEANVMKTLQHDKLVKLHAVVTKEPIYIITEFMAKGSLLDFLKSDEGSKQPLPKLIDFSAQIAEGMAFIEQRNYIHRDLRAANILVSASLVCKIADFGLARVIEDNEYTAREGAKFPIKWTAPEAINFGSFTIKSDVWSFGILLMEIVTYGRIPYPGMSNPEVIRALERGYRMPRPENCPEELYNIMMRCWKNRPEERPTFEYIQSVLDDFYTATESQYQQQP

TTK (human) = TTK (human) (UniProt P33981)
MINK1 (human) = MINK1 (human) (UniProt Q8N4C8)
EPHA7 (human) = EPHA7 (human) (UniProt Q15375)
AKT2 (human) = AKT2 (human) (UniProt P31751)
EPHA3 (human) = EPHA3 (human) (UniProt P29320)
CDC42BPB (human) = CDC42BPB (human) (UniProt Q9Y5S2)
Sequence of CDC42BPB (human) (Q9Y5S2 whole entry, looked up): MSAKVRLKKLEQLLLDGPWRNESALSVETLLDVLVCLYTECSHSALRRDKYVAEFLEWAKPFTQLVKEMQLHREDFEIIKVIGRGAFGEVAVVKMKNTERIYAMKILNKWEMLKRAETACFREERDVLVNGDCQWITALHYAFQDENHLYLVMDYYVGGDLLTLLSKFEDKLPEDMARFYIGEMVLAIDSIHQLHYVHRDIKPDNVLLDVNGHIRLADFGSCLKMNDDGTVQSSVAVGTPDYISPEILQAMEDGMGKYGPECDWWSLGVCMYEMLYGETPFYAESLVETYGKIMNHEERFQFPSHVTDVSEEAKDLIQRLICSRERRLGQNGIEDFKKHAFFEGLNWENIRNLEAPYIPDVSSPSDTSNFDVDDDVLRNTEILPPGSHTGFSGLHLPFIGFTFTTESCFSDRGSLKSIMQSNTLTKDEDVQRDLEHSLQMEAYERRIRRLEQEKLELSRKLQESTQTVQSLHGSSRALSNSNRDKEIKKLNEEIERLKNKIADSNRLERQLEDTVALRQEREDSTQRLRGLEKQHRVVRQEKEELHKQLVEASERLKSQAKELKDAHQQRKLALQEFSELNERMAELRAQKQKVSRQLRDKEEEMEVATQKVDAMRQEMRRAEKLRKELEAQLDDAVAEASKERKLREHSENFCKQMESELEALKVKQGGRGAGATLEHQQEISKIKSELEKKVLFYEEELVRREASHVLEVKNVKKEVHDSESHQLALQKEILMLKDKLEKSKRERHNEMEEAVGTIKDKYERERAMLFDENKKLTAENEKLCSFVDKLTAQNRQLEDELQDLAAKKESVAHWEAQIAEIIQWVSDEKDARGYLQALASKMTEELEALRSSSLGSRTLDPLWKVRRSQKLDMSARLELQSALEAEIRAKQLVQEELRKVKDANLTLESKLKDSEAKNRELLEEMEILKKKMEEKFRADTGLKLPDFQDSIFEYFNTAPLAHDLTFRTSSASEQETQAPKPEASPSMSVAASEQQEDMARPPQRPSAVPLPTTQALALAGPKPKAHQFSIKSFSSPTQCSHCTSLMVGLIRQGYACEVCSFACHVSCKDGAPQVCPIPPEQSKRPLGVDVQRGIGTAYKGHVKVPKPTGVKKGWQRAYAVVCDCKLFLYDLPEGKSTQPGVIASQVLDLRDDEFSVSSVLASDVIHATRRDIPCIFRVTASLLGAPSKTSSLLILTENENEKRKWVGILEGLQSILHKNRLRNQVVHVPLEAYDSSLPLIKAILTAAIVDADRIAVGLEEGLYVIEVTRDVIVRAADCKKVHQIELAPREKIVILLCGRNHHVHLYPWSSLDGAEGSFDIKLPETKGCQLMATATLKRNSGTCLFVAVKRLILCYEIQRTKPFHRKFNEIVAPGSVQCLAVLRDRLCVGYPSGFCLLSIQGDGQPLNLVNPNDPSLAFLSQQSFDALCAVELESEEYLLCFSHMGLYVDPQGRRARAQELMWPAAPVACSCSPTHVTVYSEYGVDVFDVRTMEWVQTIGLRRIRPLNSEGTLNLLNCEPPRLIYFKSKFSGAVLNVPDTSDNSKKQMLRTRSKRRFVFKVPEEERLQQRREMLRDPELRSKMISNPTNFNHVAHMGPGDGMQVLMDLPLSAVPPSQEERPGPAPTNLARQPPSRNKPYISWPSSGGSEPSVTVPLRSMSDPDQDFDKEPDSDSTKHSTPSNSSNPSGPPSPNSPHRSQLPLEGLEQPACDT

CDK9 (human) = CDK9 (human) (UniProt P50750)
[2] = target: JAK1 JH2 pseudokinase (human) (UniProt P23458)
MAPK14 (human) = MAPK14 (human) (UniProt Q16539)
[3] = tested on: EGFR (human), P00533 [752-759 del]
CDK16 (human) = CDK16 (human) (UniProt Q00536)
Sequence of CDK16 (human) (Q00536 whole entry, looked up): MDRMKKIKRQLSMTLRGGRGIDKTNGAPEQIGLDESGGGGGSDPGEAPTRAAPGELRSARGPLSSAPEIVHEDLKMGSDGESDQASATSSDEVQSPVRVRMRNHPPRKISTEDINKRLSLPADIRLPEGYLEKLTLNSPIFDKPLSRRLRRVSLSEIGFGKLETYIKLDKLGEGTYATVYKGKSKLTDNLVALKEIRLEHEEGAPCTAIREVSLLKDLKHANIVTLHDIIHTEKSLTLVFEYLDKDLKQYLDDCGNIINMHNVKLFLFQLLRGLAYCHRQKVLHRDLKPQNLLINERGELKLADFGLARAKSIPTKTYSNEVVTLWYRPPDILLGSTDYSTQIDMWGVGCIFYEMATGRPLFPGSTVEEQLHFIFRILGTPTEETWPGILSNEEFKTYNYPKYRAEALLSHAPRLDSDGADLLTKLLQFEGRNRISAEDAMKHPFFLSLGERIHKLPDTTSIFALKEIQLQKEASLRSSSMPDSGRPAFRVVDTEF

CDK18 (human) = CDK18 (human) (UniProt Q07002)
PIK3CG (human) = PIK3CG (human) (UniProt P48736)
Sequence of PIK3CG (human) (P48736 whole entry, looked up): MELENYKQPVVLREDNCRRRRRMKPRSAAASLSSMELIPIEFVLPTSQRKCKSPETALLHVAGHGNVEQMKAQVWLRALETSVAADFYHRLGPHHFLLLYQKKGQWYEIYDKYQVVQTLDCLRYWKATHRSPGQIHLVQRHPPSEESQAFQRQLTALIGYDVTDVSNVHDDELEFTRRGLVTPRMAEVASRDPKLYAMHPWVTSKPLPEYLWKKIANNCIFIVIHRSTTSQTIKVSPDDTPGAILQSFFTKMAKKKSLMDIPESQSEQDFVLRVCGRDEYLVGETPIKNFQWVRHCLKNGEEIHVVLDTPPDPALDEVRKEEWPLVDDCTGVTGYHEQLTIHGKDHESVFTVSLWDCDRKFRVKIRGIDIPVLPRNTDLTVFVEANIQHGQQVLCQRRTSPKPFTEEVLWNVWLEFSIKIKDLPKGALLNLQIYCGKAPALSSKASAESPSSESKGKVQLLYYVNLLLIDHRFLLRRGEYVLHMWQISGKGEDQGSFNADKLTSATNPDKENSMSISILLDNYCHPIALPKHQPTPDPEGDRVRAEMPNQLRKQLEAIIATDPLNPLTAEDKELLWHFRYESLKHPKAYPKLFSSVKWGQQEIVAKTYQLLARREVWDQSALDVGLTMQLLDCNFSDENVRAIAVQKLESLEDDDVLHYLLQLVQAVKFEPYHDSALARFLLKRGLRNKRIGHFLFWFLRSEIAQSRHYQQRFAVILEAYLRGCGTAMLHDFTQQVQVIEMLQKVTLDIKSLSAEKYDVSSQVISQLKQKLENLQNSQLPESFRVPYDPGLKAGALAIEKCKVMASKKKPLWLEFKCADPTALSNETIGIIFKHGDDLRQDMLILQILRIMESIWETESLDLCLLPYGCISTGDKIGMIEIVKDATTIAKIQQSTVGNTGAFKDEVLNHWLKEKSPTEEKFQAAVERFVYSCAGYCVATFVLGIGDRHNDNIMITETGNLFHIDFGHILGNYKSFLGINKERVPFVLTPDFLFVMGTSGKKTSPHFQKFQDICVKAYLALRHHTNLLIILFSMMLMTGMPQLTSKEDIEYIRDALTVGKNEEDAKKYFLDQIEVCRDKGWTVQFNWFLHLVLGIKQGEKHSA

CDK11B (human) = CDK11B (human) (UniProt P21127)
STK38 (human) = STK38 (human) (UniProt Q15208)
PRKCE (human) = PRKCE (human) (UniProt Q02156)
HUNK (human) = HUNK (human) (UniProt P57058)
MAPK1 (human) = MAPK1 (human) (UniProt P28482)
CaMK1 (human) = CaMK1 (human) (UniProt Q14012)
WEE2 (human) = WEE2 (human) (UniProt P0C1S8)
MYLK2 (human) = MYLK2 (human) (UniProt Q9H1R3)
HIPK1 (human) = HIPK1 (human) (UniProt Q86Z02)
CDKL5 (human) = CDKL5 (human) (UniProt O76039)
PAK7 (human) = PAK7 (human) (UniProt Q9P286)
FRK (human) = FRK (human) (UniProt P42685)
TYRO3 (human) = TYRO3 (human) (UniProt Q06418)
HIPK2 (human) = HIPK2 (human) (UniProt Q9H2X6)
TAOK2 (human) = TAOK2 (human) (UniProt Q9UL54)
NIM1 (human) = NIM1 (human) (UniProt Q8IY84)
AKT1 (human) = AKT1 (human) (UniProt P31749)
RIOK1 (human) = RIOK1 (human) (UniProt Q9BRS2)

Sequence of EPHB1 (human) (P54762 whole entry, looked up): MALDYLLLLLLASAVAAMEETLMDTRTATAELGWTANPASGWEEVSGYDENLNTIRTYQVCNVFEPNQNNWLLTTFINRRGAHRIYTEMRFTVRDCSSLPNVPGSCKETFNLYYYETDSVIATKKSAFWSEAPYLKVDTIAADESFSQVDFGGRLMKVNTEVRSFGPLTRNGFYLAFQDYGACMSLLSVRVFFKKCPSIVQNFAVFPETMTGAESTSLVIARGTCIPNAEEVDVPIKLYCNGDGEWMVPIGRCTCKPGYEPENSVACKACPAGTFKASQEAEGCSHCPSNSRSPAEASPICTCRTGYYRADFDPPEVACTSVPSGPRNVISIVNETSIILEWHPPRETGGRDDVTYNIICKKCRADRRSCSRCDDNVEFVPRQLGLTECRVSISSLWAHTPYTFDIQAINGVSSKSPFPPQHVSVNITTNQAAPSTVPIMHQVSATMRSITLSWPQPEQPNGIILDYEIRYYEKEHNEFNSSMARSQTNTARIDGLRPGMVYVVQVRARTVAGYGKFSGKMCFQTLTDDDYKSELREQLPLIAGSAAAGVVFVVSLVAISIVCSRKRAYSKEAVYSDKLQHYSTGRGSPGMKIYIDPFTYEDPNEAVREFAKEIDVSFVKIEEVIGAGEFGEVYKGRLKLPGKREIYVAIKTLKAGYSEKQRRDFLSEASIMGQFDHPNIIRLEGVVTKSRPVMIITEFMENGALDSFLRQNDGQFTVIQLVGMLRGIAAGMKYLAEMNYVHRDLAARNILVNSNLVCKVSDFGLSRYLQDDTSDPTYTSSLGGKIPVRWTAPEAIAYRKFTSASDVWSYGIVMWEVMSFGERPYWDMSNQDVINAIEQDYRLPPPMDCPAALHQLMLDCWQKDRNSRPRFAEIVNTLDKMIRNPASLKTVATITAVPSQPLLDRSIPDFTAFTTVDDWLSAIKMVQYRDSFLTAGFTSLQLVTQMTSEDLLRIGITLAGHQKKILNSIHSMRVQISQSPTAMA

With `CNc1nc(Nc2ccc(C(=O)N3CCOCC3)cc2OC)ncc1Cl` the kinase still bound, per cent of control (RIPK2 (human)) was 54%, the residual activity (CDC2L2 (human)) was 100% and the kinase still bound, per cent of control (EPHA8 (human)) was 100%. The kinase still bound, per cent of control [1] was 90%, the kinase still bound, per cent of control (EPHB1 (human)) was 100% and the kinase still bound, per cent of control (FES (human)) was 100%. It also gave a kinase still bound, per cent of control (TLK2 (human)) of 100%, a kinase still bound, per cent of control (HCK (human)) of 100% and a kinase still bound, per cent of control (TTK (human)) of 20%. The kinase still bound, per cent of control (MINK1 (human)) was 100%, the kinase still bound, per cent of control (EPHA7 (human)) was 100% and the kinase still bound, per cent of control (AKT2 (human)) was 100%. It also gave a kinase still bound, per cent of control (EPHA3 (human)) of 100%, a kinase still bound, per cent of control (CDC42BPB (human)) of 100% and a residual activity (CDK9 (human)) of 100%. The kinase still bound, per cent of control [2] was 90%, the kinase still bound, per cent of control (MAPK14 (human)) was 100% and the kinase still bound, per cent of control [3] was 100%. It also gave a residual activity (CDK16 (human)) of 100%, a residual activity (CDK18 (human)) of 98% and a kinase still bound, per cent of control (PIK3CG (human)) of 78%. The residual activity (CDK11B (human)) was 100%, the kinase still bound, per cent of control (STK38 (human)) was 100% and the kinase still bound, per cent of control (PRKCE (human)) was 86%. The kinase still bound, per cent of control (HUNK (human)) was 98%, the kinase still bound, per cent of control (MAPK1 (human)) was 100% and the kinase still bound, per cent of control (CaMK1 (human)) was 96%. The kinase still bound, per cent of control (WEE2 (human)) was 95%, the kinase still bound, per cent of control (MYLK2 (human)) was 100% and the kinase still bound, per cent of control (HIPK1 (human)) was 79%. It also gave a residual activity (CDKL5 (human)) of 94%, a kinase still bound, per cent of control (PAK7 (human)) of 62% and a kinase still bound, per cent of control (FRK (human)) of 63%. For the same compound, the kinase still bound, per cent of control (TYRO3 (human)) was 100%, the kinase still bound, per cent of control (HIPK2 (human)) was 100% and the kinase still bound, per cent of control (TAOK2 (human)) was 88%. For the same compound, the kinase still bound, per cent of control (NIM1 (human)) was 100%, the kinase still bound, per cent of control (AKT1 (human)) was 99% and the kinase still bound, per cent of control (RIOK1 (human)) was 95%.
